# In patent US7381745B2, “Ligands for metabotropic glutamate receptors and inhibitors of NAALADase” (Georgetown University, priority 1999, dated 2008):
# “And” between values parts separate entries of the source, which are not always exact repeats. Equal values may be shown once. Read-outs that look alike come from different tables or passages of the source. Residues, ends and D or L forms follow the SMILES beside them.
# Assays:
# [1] = test system: transient middle cerebral artery occlusion; conditions: cited from earlier work
# mGluR3 [2] = target: T1, mGluR3 (Rattus norvegicus, UniProt P31422); assay: mGluR3 receptor activation (cell lines transfected with mGluRs); type: cell-based
# T1 construct: expressed in transfected cells
# From the text: Our studies began from the dipeptide N-acetyl-L-aspartate-L-glutamate (NAAG), a dipeptide that is quite abundant in the brain, and which is believed to act as a transmitter or co-transmitter in the central nervous system, much like glutamate itself. […] 69, 174(1997)]. Recently, a brain enzyme was identified that is specific for the cleavage of N-acetylated α-linked acidic dipeptides, and as a result this enzyme was named NAALADase [J. Biol. Chem., 1987, 262, 14498].
# NMDA-induced cell death = conditions: other in vitro models; cited from earlier work
# [3] = test system: NMDA toxicity in cortical neuronal cells; assay: NMDA toxicity model C: cortical neurons given medium from drug-treated glial cells, LDH release; type: cell-based, mice; conditions: for Neuroprotection against NMDA toxicity: model C protocol, 1 μM, LDH at 24 hours
# Experimental: (§1) We have tested the validity of these statements using three models of NMDA toxicity in cultures of cortical neurons prepared from fetal mice. The first model (A) consists of using a culture containing neurons without glial cells. NMDA (75 μM) is applied for 10 min without or with the tested compound. Then the culture medium is replaced and cells are left for 24 hours to develop toxicity. The second model (B) involves the use of mice cortical neurons which are seeded on a layer of confluent glial cells (mostly astrocytes) prepared from cerebral cortex of newborn mice. The incubations are identical as in model A. The third model (C) separates the neuronal and glial cultures. Glial cultures are treated with the tested neuroprotective compound in order to induce the release of protective factors into the medium. In parallel, cultures of cortical neurons (without glia) are treated for 10 min with NMDA (20 μM). Then NMDA is washed out and the neurons are treated with the medium collected from the treated glial cells. In all cases toxicity is assessed 24 hours after NMDA treatment by measurements of lactate dehydrogenase (LDH) activity accumulated in the medium during this period of time.
# This was done using a published protocol in which cultures of cortical glial cells are first treated with the test compound in order to induce the release of protective factors into the medium. In parallel, cultures of cortical neurons (without glia) are exposed for 10 min to the excitotoxic action of NMDA (20 μM). The NMDA is removed by washing, and the neurons are treated with the medium collected from the treated glial cells. Toxicity is then assessed 24 hours after NMDA treatment by the measurement of lactate dehydrogenase (LDH) activity, which serves as a marker for dying cells. […] Among the potent GCPII inhibitors tested, three compounds [HO2C(CH2)2CH(CO2H)CH2]2P(O)(OH), (S)-Glu-C(O)-(S)Glu, and (S)-Asp-C(O)-(S)Glu produced at 1 μM a similarly modest neuroprotection ranging from 21% to 31%. In contrast, the two Cys-containing compounds, (t-Bu)Cys-C(O)-(S)-Glu and (S)-Cys-C(O)-(S)-Glu, produced 69% and 50% neuroprotection, respectively. While the exact mechanism of this neuroprotective effect cannot be explained based entirely upon GCPII inhibition, these exciting results warrant further study in other models of in vitro toxicity, including the assessment of the compounds' effects in vivo.
# rat GCPII [4] = target: T2, rat GCPII (Rattus norvegicus, UniProt P70627); conditions: cited from earlier work; for IC50: read-out: IC50 against GCPII
# T2 construct: expressed in transfected cells
# [5] = test system: NMDA toxicity in mixed cultures of cortical neuronal-glial cells; assay: NMDA toxicity model B: mixed cortical neuronal-glial cultures, LDH release; type: cell-based, mice
# Experimental: as §1
# NAALADase = NAALADase (Rattus norvegicus, UniProt P70627); assay: NAALADase inhibition; type: biochemical; conditions: read-out: IC50 as NAALADase inhibitor
# mGluR3 [6] = target: T1, mGluR3; conditions: cited from earlier work
# rat GCPII [7] = target: T2, rat GCPII; assay: Inhibition of rat GCPII stably expressed in CHO cells; type: biochemical; conditions: for IC50: read-out: IC50 against expressed rat GCPII
# [8] = test system: NMDA toxicity in cultures of cortical neurons; assay: NMDA toxicity model A: cortical neurons without glial cells, LDH release; type: cell-based, mice; conditions: 10 μM, NMDA 75 μM
# Experimental: as §1
# [9] = test system: U-87 glioblastoma multiforme cells; assay: Antiangiogenesis in s.c. glioblastoma xenografts (vWF staining); type: in vivo; conditions: 100 μM, 0.1 mL once daily into base of xenograft, harvested at 7 days
# Experimental: Implanted xenografts were formed by s.c. inoculation with 2×10^6 U-87 glioblastoma multiforme cells mixed with 0.5 mg Matrigel. FN11 was dissolved in PBS to a concentration of either 10 or 100 μM, and injections (0.1 mL) were made once daily into the base of the s.c. implanted xenografts. The starting volumes of the tumors were approximately 250 mm^3. The results from this protocol are depicted in FIG. 15.
# Control tumors and tumors grown under the conditions described in Example 21 were harvested at the end of 7 days, fixed in formalin and embedded in paraffin for sectioning. Tissue was stained immunohistochemically for von Willebrand's factor (vWF) to obtain a measure of vascularization. FIGS. 13 and 14 present the results of this protocol for the tumor treated with FN11 at 100 μM. FIG. 13 was taken at low magnification (100×), whereas FIG. 14 was taken at high magnification (400×).
# T2 sequence (P70627 whole entry): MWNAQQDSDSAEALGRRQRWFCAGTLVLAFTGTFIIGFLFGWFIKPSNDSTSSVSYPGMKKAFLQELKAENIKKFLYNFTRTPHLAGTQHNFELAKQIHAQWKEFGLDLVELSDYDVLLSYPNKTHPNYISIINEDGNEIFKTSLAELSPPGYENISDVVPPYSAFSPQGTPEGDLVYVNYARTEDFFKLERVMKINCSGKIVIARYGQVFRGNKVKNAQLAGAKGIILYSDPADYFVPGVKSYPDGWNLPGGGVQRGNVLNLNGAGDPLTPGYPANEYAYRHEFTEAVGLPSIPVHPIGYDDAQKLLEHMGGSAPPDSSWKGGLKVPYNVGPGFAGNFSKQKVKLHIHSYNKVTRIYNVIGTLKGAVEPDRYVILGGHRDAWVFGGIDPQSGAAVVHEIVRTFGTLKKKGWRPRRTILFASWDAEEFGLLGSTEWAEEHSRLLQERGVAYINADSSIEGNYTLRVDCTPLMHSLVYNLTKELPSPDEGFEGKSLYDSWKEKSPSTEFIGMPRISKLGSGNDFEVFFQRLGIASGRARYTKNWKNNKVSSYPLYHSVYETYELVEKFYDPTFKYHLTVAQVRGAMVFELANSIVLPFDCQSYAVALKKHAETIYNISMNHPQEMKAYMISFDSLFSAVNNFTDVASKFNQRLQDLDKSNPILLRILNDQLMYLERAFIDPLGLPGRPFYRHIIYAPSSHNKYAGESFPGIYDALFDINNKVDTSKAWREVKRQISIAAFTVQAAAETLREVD
# T1 sequence (P31422 23-879): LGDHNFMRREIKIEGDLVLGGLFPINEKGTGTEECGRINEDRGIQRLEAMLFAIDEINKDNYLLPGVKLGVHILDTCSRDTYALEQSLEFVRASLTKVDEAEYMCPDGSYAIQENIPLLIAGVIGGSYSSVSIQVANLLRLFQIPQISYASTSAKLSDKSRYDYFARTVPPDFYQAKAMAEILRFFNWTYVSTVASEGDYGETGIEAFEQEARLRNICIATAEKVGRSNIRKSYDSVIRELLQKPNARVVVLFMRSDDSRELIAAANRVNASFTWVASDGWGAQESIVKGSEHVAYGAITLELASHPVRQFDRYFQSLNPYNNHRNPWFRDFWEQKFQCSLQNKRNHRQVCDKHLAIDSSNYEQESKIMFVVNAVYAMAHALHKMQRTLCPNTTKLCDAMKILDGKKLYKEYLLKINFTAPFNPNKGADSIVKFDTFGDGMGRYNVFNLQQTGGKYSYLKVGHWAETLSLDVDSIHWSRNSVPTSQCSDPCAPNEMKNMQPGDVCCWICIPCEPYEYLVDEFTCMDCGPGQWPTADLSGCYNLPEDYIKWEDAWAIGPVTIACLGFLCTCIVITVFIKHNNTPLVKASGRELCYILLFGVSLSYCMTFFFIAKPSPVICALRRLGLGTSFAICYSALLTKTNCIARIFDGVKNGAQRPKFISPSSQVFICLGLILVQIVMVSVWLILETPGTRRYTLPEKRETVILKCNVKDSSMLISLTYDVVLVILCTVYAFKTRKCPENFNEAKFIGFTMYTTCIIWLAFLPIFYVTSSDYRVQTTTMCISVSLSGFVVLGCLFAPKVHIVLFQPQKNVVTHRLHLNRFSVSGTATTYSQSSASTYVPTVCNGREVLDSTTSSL
# Chain of NAALADase (P70627 whole entry): as the sequence (P70627 whole entry) above
compound,measurement,setting,value
"2-(phosphomethyl)pentanedioic acid [PMPA, reference compound]",Glutamate and NAAG levels (in words),[1]; rat MCAO model,decreased glutamate levels while increasing NAAG levels
same,Protection against injury (in words),"[1]; rats, Slusher et al.",significant protection against injury
same,mGluR3 activity (in words),mGluR3 [2],act as an agonist at mGluR3
same,Neuroprotection against NMDA-induced cell death,NMDA-induced cell death,16%
same,Neuroprotection against NMDA toxicity,[3]; NMDA 20 μM,about 25%
same,Neuroprotection (in words),"[3]; model C, compared with FN6 enantiomers",less effective
O=C(O)C[C@H](NC(=O)N[C@@H](CC(=O)O)C(=O)O)C(=O)O (hydrate or solvate) [PC103],melting point,,> 142 °C
CC(C)(C)NC(=O)N[C@@H](CCC(=O)O)C(=O)O (hydrate or solvate) [PC113],melting point,,108 to 110 °C
"O=C(O)CCC(CP(=O)(O)CC(CCC(=O)O)C(=O)O)C(=O)O (racemic) [FN6, 4,4′-phosphinicobis(butane-1,3-dicarboxylic acid)]",IC50,"rat GCPII [4]; previous work, listed as PBBDA",21.7 ± 2.1 nM
same,IC50,"rat GCPII [4]; previous work, listed as [HO2C(CH2)2CH(CO2H)CH2]2P(O)(OH)",26 nM
same,Neuroprotection,[5]; 300 μM,about 30%
same,IC50,NAALADase,4 nM
same,EC50,"mGluR3 [6]; previous work, read-out: mGluR3 selective agonist potency",~30000 nM
"N[C@@H](CC(=O)O)C(=O)N[C@@H](CC(=O)O)C(=O)O [(S)-Asp-(S)-Asp, reference compound] (H-Asp-Asp-OH)",inhibition of GCPII,"rat GCPII [4]; at 100 μM, dipeptide, published data for comparison",42% inhibition at 100 μM
same,IC50,"rat GCPII [4]; published data, ref. 6a",58000 nM
O=C(NC(CS)C(=O)O)NC(CS)C(=O)O [(S)-Cys-C(O)-(S)-Cys],GCPII inhibitory activity (in words),rat GCPII [7]; tested at 1 μM,Inactive at 1 μM
"N[C@@H](CCC(=O)O)C(=O)N[C@@H](CCC(=O)O)C(=O)O [(S)-Glu-(S)-Glu, reference compound] (H-Glu-Glu-OH)",fold less potent than (S)Glu-C(O)-(S)Glu at GCPII,rat GCPII [7],16 fold
O=C(O)CC[C@H](NC(=O)C(=O)N[C@@H](CCC(=O)O)C(=O)O)C(=O)O [(S)-Glu-C(O)-C(O)-(S)-Glu],GCPII inhibitory activity (in words),rat GCPII [7],inactive
same,inhibition of expressed rat GCPII,rat GCPII [7]; at 1 μM,9% inbibition at 1 μM
"NC1(C(=O)O)CC2CC1C2C(=O)O (stereo not shown) [ABHxD-I, 2-aminobicyclo 2.1.1 hexahe-2.5-dicarboxylic acid, reference compound]",Protection against NMDA toxicity (in words),[8],not able to protect against NMDA toxicity
same,Reduction of the toxic effect of NMDA,"[5]; 10 μM, NMDA 75 μM",over 40%
same,Protection against NMDA toxicity (in words),"[3]; model C, 10 μM, NMDA 20 μM",as effective as in model B
O=C(O)CCC(CC(=O)CC(CCC(=O)O)C(=O)O)C(=O)O (stereo not shown) [A],mGluR3 activity (in words),mGluR3 [2],retained significant mGluR3 activity
O=C(O)CC[C@H](NC(=O)N[C@@H](CCC(=O)O)C(=O)O)C(=O)O [FN11],IC50,rat GCPII [7],47 nM
same,Vascularization of tumor (von Willebrand's factor staining),[9],preponderance of avascular and low vascular areas
O=C(O)CC[C@@H](NC(=O)N[C@H](CCC(=O)O)C(=O)O)C(=O)O [FN13],Neuroprotection,"[3]; model C, 100 μM",about 20%
O=C(O)CC[C@H](NC(=O)N[C@H](CCC(=O)O)C(=O)O)C(=O)O [FN16],inhibition at 100 µM,rat GCPII [7]; read-out: inhibition of expressed rat GCPII,97%
"CC(=O)N[C@@H](CC(=O)O)C(=O)N[C@@H](CCC(=O)O)C(=O)O [NAAG, N-acetyl-L-aspartate-L-glutamate, reference compound] (Ac-Asp-Glu-OH)",EC50,"mGluR3 [6]; cell lines transfected with mGluR1-6, read-out: EC50 for activation of mGluR3",65000 ± 20000 nM
O=C(O)C[C@H](NC(=O)N[C@@H](CC(=O)O)C(=O)O)C(=O)O [PC103],IC50,rat GCPII [7],3800 nM
O=C(O)CC[C@H](NC(=O)N[C@@H](CC(=O)O)C(=O)O)C(=O)O [PC107],IC50,rat GCPII [7]; listed as (S)-Asp-C(O)-(S)-Glu,46 nM and 46.1 nM
O=C(O)CC[C@H](NC(=O)NCC(=O)O)C(=O)O [PC108],GCPII inhibitory activity (in words),rat GCPII [7],inactive
same,inhibition at 1 µM,rat GCPII [7]; at 1 μM,46%
CC(C)(C)NC(=O)N[C@@H](CCC(=O)O)C(=O)O [PC113],GCPII inhibitory activity (in words),rat GCPII [7],inactive
same,inhibition at 1 µM,rat GCPII [7]; at 1 μM,10%
O=C(O)CC[C@H](NC(=O)N[C@@H](CS)C(=O)O)C(=O)O [PC118],GCPII inhibitory activity (in words),rat GCPII [7],nearly as potent as (S)-Glu-C(O)-(S)-Glu
same,IC50,rat GCPII [7],72.4 ± 6.5 nM
same,Neuroprotection against NMDA toxicity,[3]; NMDA 20 μM,50%
CC(C)(C)SC[C@H](NC(=O)N[C@@H](CCC(=O)O)C(=O)O)C(=O)O [PC120],IC50,rat GCPII [7],101 ± 19.3 nM
same,Ki,rat GCPII [7]; read-out: Ki against GCPII,~100 nM
same,Neuroprotection against NMDA toxicity,[3]; NMDA 20 μM,69%
